Results taken from US4413007A, “Pesticidal symmetrical N-substituted bis-carbamoyloximino disulfide compounds” (priority 1978, dated 1983).

What was measured:
[1] = test system: root-knot nematode (Meloidogyne incognita var. acrita); assay: Nematode Test; assay type: in vivo; set-up: key: 1: severe galling; equal to untreated control; 2: moderate galling; 3: light galling; 4: very light galling; 5: no galling; settings: 10 ml of 500 ppm formulation per jar (approx. 180 cc soil), cucumber indicator crop, approx. three weeks
Method: (§1) Suspensions of the test compounds were prepared by dissolving one gram of compound in 50 milliliters of acetone in which had been dissolved 0.1 gram (10 percent of the weight of compound) of an alkylphenoxy polyethoxyethanol surfactant, as an emulsifying or dispersing agent. The resulting solution was mixed into 150 milliliters of water to give roughly 200 milliliters of a suspension containing the compound in finely divided form. The thus-prepared stock suspension contained 0.5 percent by weight of compound. The test concentrations in parts per million by weight employed in the tests described hereinbelow were obtained by appropriate dilutions of the stock suspension with water. The test procedures were as follows:
Infective migratory larvae of the root-knot nematode, (Meloidogyne incognita var. acrita) were reared in the greenhouse on roots of Rutgers variety tomato plant. Infected tomato plants were removed from the culture and the roots were chopped very finely. A small amount of inoculum from the roots was added to pint Mason jars containing approximately 180 cc of soil. The jars containing the inoculum and soil were capped and incubated for one week at room temperature. During this period eggs of the nematode hatched and the larvae forms migrated into the soil.
The test compounds were formulated by diluting the stock suspension with water to give a suspension containing 500 parts of test compound per million parts of final formulation. 10 milliliters of the test formulation was added to each of two jars for each dosage treated. As a control 10 milliliters of a water-acetone-emulsifier solution containing no test compound was also added to jars containing nematode larvae. The jars were capped and the contents thoroughly mixed on a kale mill for five minutes. The jars remained capped at room temperature for a period of 48 hours and the contents were then transferred to 3 inch pots. Subsequently, the pots were seeded to cucumber as an indicator crop and placed in the green house where they were cared for in the normal fashion for growing potted cucumber for approximately three weeks. These cucumber plants were then removed from the pots, the soil washed from the roots and the amount of galling visually rated.
The nematocidal toxicity has the following ratings;

[2] = test system: house flies (Musca domestica, L.); assay: Fly Bait Test; assay type: in vivo; set-up: key: A: excellent control; B: partial control; C: no control; settings: 500 ppm in sugar solution, twenty four hours
Method: as §1
Four to six day old adult house flies (Musca domestica, L.) reared according to the specifications of the Chemical Specialities Manufacturing Association (Blue Book, McNair-Dorland Co., N.Y. 1954; pages 243-244, 261) under controlled conditions of 80±5° F. and 50±5 percent relative humidity, were the test insects. The flies were immobilized by anesthetizing with carbon dioxide and twenty five immobilized individuals,males and females, were transferred to a cage consisting of a standard food strainer about five inches in diameter which was inverted over a wrapping-paper-covered surface. The test compounds were formulated by diluting the stock suspension with a 10 percent (by weight) sugar solution to give a suspension containing 500 parts of test compound per million parts of final formulation, by weight. Ten milliliters of the test formulation were added to a souffle cup containing a one-inch square of an absorbent cotton pad. This bait cup was introduced and centered on the blotting paper under the food strainer prior to admitting the anesthetized flies. The caged flies were allowed to feed on the bait for twenty four hours, at a temperature of 80±5° F. and the relative humidity of 50±5 percent.
(§2) In these tests the pesticidal activity of the compounds against aphid, mite, Southern Armyworm, Bean Beetle and house fly was rated as follows: […]

[3] = test system: bean aphid (Aphis fabae Scop.); assay: Bean Aphid Foliage Spray Test; assay type: in vivo; set-up: key: A: excellent control; B: partial control; C: no control; settings: 500 ppm, 24 hour holding period
Method: as §1
Adults and nymphal stages of the bean aphid (Aphis fabae Scop.) reared on potted dwarf nasturtium plants at 65°-70° F. and 50-70 percent relative humidity, constituted the test insects. For testing purposes, the number of aphids per pot was standardized to 100-150 by trimming plants containing excess aphids.
The test compounds were formulated by diluting the stock suspension with water to give a suspension containing 500 parts of test compound per million parts of final formulation.
The potted plants (one pot per compound tested) infested with 100-150 aphids, were placed on a revolving turntable and sprayed with 100-110 milliliters of test compound formulation by use of a DeVilbiss spray gun set at 40 psig. air pressure. This application, which tested 25 seconds, was sufficient to wet the plants to run-off. As a control, 100-110 milliliters of a water-acetone-emulsifier solution containing no test compound were also sprayed on infested plants. After spraying, the pots were placed on their sides on a sheet of white standard mimeograph paper which had been previously ruled to facilitate counting. Temperature and humidity in the test room during the 24 hour holding period were 65°-70° F. and 50-70 percent, respectively. Aphids which fell onto the paper and were unable to remain standing after being uprighted were considered dead. Aphids remaining on the plants were observed closely for movement and those which were unable to move the length of the body upon stimulation by prodding were considered dead. Percent mortality was recorded for various concentration levels.
as §2

[4] = Peroral toxicity to mammals (rat); settings: in vivo, po, 50 percent mortality, read-out: A.O. Rat (LD50)
Method: Certain of these compositions were also evaluated to determine their peroral toxicity to mammals. The animal selected for this experiment was the rat. The test results obtained are expressed in terms of the number of milligrams of compositions per kilogram of weight of the animal required to achieve a mortality rate of 50 percent (LD50).

[5] = test system: southern armyworm (Prodenia eridania, (Cram.)); assay: Southern Armyworm Leaf Spray Test; assay type: in vivo; set-up: key: A: excellent control; B: partial control; C: no control; settings: 500 ppm, three days
Method: as §1
Larvae of the southern armyworm (Prodenia eridania, (Cram.)), reared on Tendergreen bean plants at a temperature of 80±5° F. and a relative humidity of 50±5 percent, constituted the test insects.
The test compounds were formulated by diluting the stock suspension with water to give a suspension containing 500 parts of test compound per million parts of final formulation. Potted Tendergreen bean plants of standard height and age were placed on a revolving turntable and sprayed with 100-110 milliliters of test compound formulation by use of a DeVilbiss spray gun set at 10 psig air pressure. This application, which tested 25 seconds, was sufficient to wet plants to run-off. As a control, 100-110 milliliters of a water-acetone-emulsifier solution containing no test compound were also sprayed on infested plants. When dry, the paired leaves were separated and each one was placed in a 9 centimeter Petri dish lined with moistened filter paper. Five randomly selected larvae were introduced into each dish and the dishes were closed. The closed dishes were labeled and held at 80°-85° F. for three days. Although the larvae could easily consume the whole leaf within twenty-four hours, no more food was added. Larvae which were unable to move the length of the body, even upon stimulation by prodding, were considered dead. Percent mortality was recorded for various concentration levels.
as §2

Row | Structure (SMILES) | Root-Knot Nematode galling rating [1] | House-Fly control rating [2] | Bean Aphid control rating [3] | LD50 [4] | Southern Armyworm control rating [5]
1 | CN(SSN(C)C(=O)ON=C1CSCCS1)C(=O)ON=C1CSCCS1 [N,N'-Bis-[1,4-Dithiane-2-O-(N-methylcarbamoyl)oximino]disulfide] | 1 | A | A | 160 mg/kg | A
2 | CC(=NOC(=O)N(C)SSN(C)C(=O)ON=C(C)SCCC#N)SCCC#N [N,N'-Bis-[1-(2-Cyanoethylthio)acetaldehyde O-(N-methylcarbamoyl)oxime]disulfide] | 4 | A | A | 80 mg/kg | A
3 | CSC(C)=NOC(=O)N(C)SSN(C)C(=O)ON=C(C)SC [N,N'-Bis-[1-Methylthioacetaldehyde O-(N-methylcarbamoyl)oxime]disulfide] | 1 | A | A | 190 mg/kg | A
